In ChEMBL document CHEMBL3046252, “Synthesis and herbicidal potential of substituted aurones” (2012):

How the values were obtained:
Assay type in all cases: functional
Digitaria sanguinalis [1] = test: Post-emergence herbicidal activity against Digitaria sanguinalis (hairy crabgrass) seedlings assessed as inhibition of plant fresh weight growth at 1500 g/ha applied through spraying under greenhouse conditions; settings: read-out: GI
[2] = system: Brassica rapa subsp. oleifera; test: Pre-emergence herbicidal activity against Brassica rapa subsp. oleifera assessed as inhibition of plant fresh weight growth at 1500 g/ha applied to soil through spraying under greenhouse conditions; settings: read-out: GI
Amaranthus retroflexus [3] = test: Post-emergence herbicidal activity against Amaranthus retroflexus seedlings assessed as inhibition of plant fresh weight growth at 1500 g/ha applied through spraying under greenhouse conditions; settings: read-out: GI
Amaranthus retroflexus [4] = test: Pre-emergence herbicidal activity against Amaranthus retroflexusassessed as inhibition of plant fresh weight growth at 1500 g/ha applied to soil through spraying under greenhouse conditions; settings: read-out: GI
Echinochloa crus-galli [5] = test: Post-emergence herbicidal activity against Echinochloa crus-galli (barnyard grass) seedlings assessed as inhibition of plant fresh weight growth at 1500 g/ha applied through spraying under greenhouse conditions; settings: read-out: GI
Digitaria sanguinalis [6] = test: Pre-emergence herbicidal activity against Digitaria sanguinalis (hairy crabgrass) assessed as inhibition of plant fresh weight growth at 1500 g/ha applied to soil through spraying under greenhouse conditions; settings: read-out: GI
Echinochloa crus-galli [7] = test: Pre-emergence herbicidal activity against Echinochloa crus-galli (barnyard grass) assessed as inhibition of plant fresh weight growth at 1500 g/ha applied to soil through spraying under greenhouse conditions; settings: read-out: GI
[8] = system: Brassica rapa subsp. oleifera; test: Post-emergence herbicidal activity against Brassica rapa subsp. oleifera seedlings assessed as inhibition of plant fresh weight growth at 1500 g/ha applied through spraying under greenhouse conditions; settings: read-out: GI
[9] = system: Brassica rapa subsp. oleifera; test: Herbicidal activity against Brassica rapa subsp. oleifera assessed as inhibition of root growth at 100 ug/ml after 65 hr by rape cup test; settings: read-out: GI
Echinochloa crus-galli [10] = test: Herbicidal activity against Echinochloa crus-galli (barnyard grass) plants assessed as inhibition of seedling growth at 1000 ug/ml after 65 hr by barnyard cup test; settings: read-out: GI
Echinochloa crus-galli [11] = test: Herbicidal activity against Echinochloa crus-galli (barnyard grass) plants assessed as inhibition of seedling growth at 100 ug/ml after 65 hr by barnyard cup test; settings: read-out: GI
[12] = system: Brassica rapa subsp. oleifera; test: Herbicidal activity against Brassica rapa subsp. oleifera assessed as inhibition of root growth at 1000 ug/ml after 65 hr by rape cup test; settings: read-out: GI
Echinochloa crus-galli [13] = test: Herbicidal activity against Echinochloa crus-galli (barnyard grass) plants assessed as germination rate at 1000 ug/ml measured on second day post dose (reference value: 100%)
Echinochloa crus-galli [14] = test: Herbicidal activity against Echinochloa crus-galli (barnyard grass) plants assessed as germination rate at 1000 ug/ml measured on first day post dose (reference value: 49.1 +/- 1.6%)
Digitaria sanguinalis [15] = test: Herbicidal activity against Digitaria sanguinalis (hairy crabgrass) assessed as germination rate at 1000 ug/ml measured on third day post dose (reference value: 100%)
Paraixeris denticulata [16] = test: Herbicidal activity against Paraixeris denticulata assessed as germination rate at 1000 ug/ml measured on third day post dose (reference value: 97.4 +/- 0.6%)
Paraixeris denticulata [17] = test: Herbicidal activity against Paraixeris denticulata assessed as germination rate at 1000 ug/ml measured on second day post dose (reference value: 76.7 +/- 0.3%)
[18] = system: Brassica rapa subsp. oleifera; test: Herbicidal activity against Brassica rapa subsp. oleifera assessed as inhibition of root growth at 10 ug/ml after 65 hr by rape cup test; settings: read-out: GI
Paraixeris denticulata [19] = test: Herbicidal activity against Paraixeris denticulata assessed as germination rate at 1000 ug/ml measured on first day post dose (reference value: 30.8 +/- 1.2%)
Digitaria sanguinalis [20] = test: Herbicidal activity against Digitaria sanguinalis (hairy crabgrass) assessed as germination rate at 1000 ug/ml measured on second day post dose (reference value: 100%)
Digitaria sanguinalis [21] = test: Herbicidal activity against Digitaria sanguinalis (hairy crabgrass) assessed as germination rate at 1000 ug/ml measured on first day post dose (reference value: 0%)
Paraixeris denticulata [22] = test: Herbicidal activity against Paraixeris denticulata assessed as germination rate at 1000 ug/ml measured on fourth day post dose (reference value: 100%)

Compound	inhibition of growth at 100 µg/mL [9] [%]	inhibition of growth at 1000 µg/mL (Echinochloa crus-galli [10]) [%]	inhibition of growth at 100 µg/mL (Echinochloa crus-galli [11]) [%]	inhibition of growth at 1000 µg/mL [12] [%]	further results
CCc1cccc(C)c1N(C(=O)CCl)C(C)COC (centres undefined) [METOLACHOR]	–	–	–	–	inhibition of growth at 1500 g/ha (Digitaria sanguinalis [1]): 46.3%; inhibition of growth at 1500 g/ha [2]: 88.3%; inhibition of growth at 1500 g/ha (Amaranthus retroflexus [3]): 66.4%; inhibition of growth at 1500 g/ha (Amaranthus retroflexus [4]): 100%; inhibition of growth at 1500 g/ha (Echinochloa crus-galli [5]): 54%; inhibition of growth at 1500 g/ha (Digitaria sanguinalis [6]): 100%; inhibition of growth at 1500 g/ha (Echinochloa crus-galli [7]): 100%; inhibition of growth at 1500 g/ha [8]: 100%
COc1cc(/C=C2\Oc3cc(O)cc(O)c3C2=O)cc(OC)c1OCc1ccccc1	48.8	36.9	15.2	75.9	–
O=C1/C(=C/c2ccccc2)Oc2cc(O)cc(O)c21	50.1	49.3	19.9	96.5	Activity (Echinochloa crus-galli [13]): 100%; Activity (Echinochloa crus-galli [14]): 15.3%; Activity (Digitaria sanguinalis [15]): 100%
O=C1/C(=C/c2ccc(O)cc2)Oc2cc(O)cc(O)c21	55.2	57.9	15	72.1	–
COc1ccc(/C=C2\Oc3cc(OC)c(C)c(OC)c3C2=O)cc1OC	40.1	51.8	16.8	83.8	–
COc1ccc(/C=C2\Oc3cc(O)cc(O)c3C2=O)cc1OC	48	48.1	12.3	82.6	–
COc1ccc(/C=C2\Oc3cc(O)cc(O)c3C2=O)cc1	63.7	28.8	10	90.8	–
COc1cc(/C=C2\Oc3cc(O)cc(O)c3C2=O)ccc1OCc1ccccc1	46.8	38.6	9.7	87.9	–
COc1cc2c(c(OC)c1C)C(=O)/C(=C/c1ccc(OCc3ccccc3)cc1)O2	14.2	40.8	2.3	91.9	–
COc1cc(/C=C2\Oc3cc(OC)c(C)c(OC)c3C2=O)ccc1OCc1ccccc1	71.7	45.1	19	99.5	Activity (Echinochloa crus-galli [13]): 100%; Activity (Paraixeris denticulata [16]): 91.7%; Activity (Paraixeris denticulata [17]): 65.5%; inhibition of growth at 10 µg/mL [18]: 42.6%; Activity (Echinochloa crus-galli [14]): 16.3%; Activity (Paraixeris denticulata [19]): 12.1%; Activity (Digitaria sanguinalis [20]): 38.9%; Activity (Digitaria sanguinalis [21]): 0%; Activity (Paraixeris denticulata [22]): 100%; Activity (Digitaria sanguinalis [15]): 100%
COc1cc(OC)c2c(c1)O/C(=C\c1ccc(F)cc1)C2=O	64.2	5	0	74.2	inhibition of growth at 10 µg/mL [18]: 50.6%
O=C1/C(=C/c2ccc(F)cc2)Oc2cc(O)cc(O)c21	39.1	20	5	42.3	–
COc1ccc(/C=C2\Oc3cc(OC)cc(OC)c3C2=O)cc1 [4,4',6-TRIMETHOXY-AURONE]	72.3	62.8	18.6	87.8	inhibition of growth at 10 µg/mL [18]: 63.2%
Cc1ccc(/C=C2\Oc3cc(O)cc(O)c3C2=O)cc1	44.3	44.2	5	78.2	–
COc1cc2c(c(OC)c1C)C(=O)/C(=C/c1ccc(F)cc1)O2	46.6	15	0	59	–
COc1cc(OC)c2c(c1)O/C(=C\c1ccc(OC)c(OC)c1)C2=O [4,6,3',4'-TETRAMETHOXYAURONE]	5.3	61.3	0.9	77.9	Activity (Echinochloa crus-galli [13]): 100%; Activity (Paraixeris denticulata [16]): 100%; Activity (Paraixeris denticulata [17]): 69.6%; Activity (Echinochloa crus-galli [14]): 13%; Activity (Paraixeris denticulata [19]): 20%; Activity (Digitaria sanguinalis [20]): 41.4%; Activity (Digitaria sanguinalis [21]): 0%; Activity (Paraixeris denticulata [22]): 100%; Activity (Digitaria sanguinalis [15]): 100%
COc1cc(OC)c2c(c1)O/C(=C\c1cccc(OC)c1OC)C2=O	34.7	42.6	25.5	51.4	–
CC(C)(C)c1ccc(/C=C2\Oc3cc(O)cc(O)c3C2=O)cc1	9.5	39.6	1.5	87.5	–
COc1cc(/C=C2\Oc3cc(OC(=O)c4ccccc4)cc(OC(=O)c4ccccc4)c3C2=O)cc(OC)c1OCc1ccccc1	47.6	19.6	5	77.1	–
COc1cc(OC)c2c(c1)O/C(=C\c1cccc(F)c1)C2=O	57.8	43.8	14.4	82.1	–
CCOc1cc(OCC)c2c(c1)O/C(=C\c1ccccc1)C2=O	37.5	27.6	8	71.3	Activity (Echinochloa crus-galli [13]): 100%; Activity (Echinochloa crus-galli [14]): 17.7%
CN(C)c1ccc(/C=C2\Oc3cc(O)cc(O)c3C2=O)cc1	54.2	46.6	3	78.9	Activity (Echinochloa crus-galli [13]): 100%; Activity (Echinochloa crus-galli [14]): 16.9%; Activity (Digitaria sanguinalis [20]): 27.8%; Activity (Digitaria sanguinalis [21]): 0%
COc1cc(/C=C2\Oc3cc(O)cc(O)c3C2=O)cc(OC)c1OC	0	68.7	5.2	83.8	–
COc1cc(/C=C2\Oc3cc(O)cc(O)c3C2=O)cc(OC)c1O	0	10	5	0	–
CCOc1cc(OCC)c2c(c1)O/C(=C\c1ccc(OC)cc1)C2=O	0	35	10	17.7	–
O=C1/C(=C/c2ccc3c(c2)OCO3)Oc2cc(O)cc(O)c21	0	10	5	8.7	–
COc1cc(OC)c2c(c1)O/C(=C\c1ccc(OCc3ccccc3)c(OC)c1)C2=O	54	44.4	8.4	68	–
COc1cc(/C=C2\Oc3cc(O)cc(O)c3C2=O)ccc1O	63.3	23.3	9.5	98.4	Activity (Echinochloa crus-galli [13]): 100%; Activity (Paraixeris denticulata [16]): 94.9%; Activity (Paraixeris denticulata [17]): 82.4%; Activity (Echinochloa crus-galli [14]): 16.9%; Activity (Paraixeris denticulata [19]): 14.3%; Activity (Digitaria sanguinalis [20]): 35.1%; Activity (Digitaria sanguinalis [21]): 0%; Activity (Paraixeris denticulata [22]): 100%; Activity (Digitaria sanguinalis [15]): 100%
COc1cc2c(c(OC)c1C)C(=O)/C(=C/c1ccccc1)O2	30.5	33.5	15	82.6	Activity (Echinochloa crus-galli [13]): 100%; Activity (Echinochloa crus-galli [14]): 19.5%; Activity (Digitaria sanguinalis [20]): 68.6%; Activity (Digitaria sanguinalis [21]): 0%; Activity (Digitaria sanguinalis [15]): 100%
COc1cc(OC)c2c(c1)O/C(=C\c1ccco1)C2=O	75.9	42.5	7.8	94.9	Activity (Echinochloa crus-galli [13]): 100%; inhibition of growth at 10 µg/mL [18]: 31.6%; Activity (Echinochloa crus-galli [14]): 23.7%; Activity (Digitaria sanguinalis [20]): 35%; Activity (Digitaria sanguinalis [21]): 0%; Activity (Digitaria sanguinalis [15]): 100%
